What was measured:
USP9X-UCH = target: T1, USP9X-UCH (Homo sapiens, UniProt Q93008); format: biochemical; conditions: isolated Usp9x-UCH domain enzyme preparation
T1 sequence (Q93008 1557-1956 limits assumed): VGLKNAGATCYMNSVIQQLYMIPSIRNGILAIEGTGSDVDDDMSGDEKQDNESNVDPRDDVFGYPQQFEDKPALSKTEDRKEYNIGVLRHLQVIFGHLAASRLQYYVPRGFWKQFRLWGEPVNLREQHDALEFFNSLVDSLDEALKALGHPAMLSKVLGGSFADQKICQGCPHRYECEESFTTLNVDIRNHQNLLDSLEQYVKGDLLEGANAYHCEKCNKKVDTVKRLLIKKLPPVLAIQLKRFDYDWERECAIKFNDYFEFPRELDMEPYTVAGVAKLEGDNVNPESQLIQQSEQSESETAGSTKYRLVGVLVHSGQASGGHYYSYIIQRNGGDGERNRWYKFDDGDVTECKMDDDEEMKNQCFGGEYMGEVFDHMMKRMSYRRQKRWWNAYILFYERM
Experimental: Purified DUBs at optimal concentrations (USPS; 20 nM, UCH-L1; 20 nM, UCH-L3; 5 nM, USP9x; immunoprecipitated from 500 μg Z138 cell lysate) were incubated in DUB buffer containing WP1130, vehicle alone (DMSO) or 1 mM NEM (positive control for DUB inhibition) in a 100 μL reaction volume for 30 min. The reaction was initiated by the addition of 500 nM Ub-AMC and the release of AMC-fluorescence was recorded at ex/em 380/480 using a spectrofluorometer.
(§1) Cancer Res, 2010. 70(22): p. […] Blood, 2011. 117(11): p. […] Biochem Pharmacol, 2011. 82(4): p. […] Blood, 2007. 109(8): p. 3470-8.

Murine norovirus (MNV) = assay: Murine norovirus plaque assay; format: cell-based; conditions: Norwalk virus, RAW264.7, MNV, murine macrophages (RAW264.7 or bone marrow derived), 5 μM, 30 min pre-treatment, 8-12 hr; read-out: Log inhibition by plaque assay
Experimental: Viral titers were determined by plaque assay.
Cells were treated with IFN-β as a positive anti-viral control.

Z138 = assay: MTT cell growth, survival and apoptosis; conditions: Z138 cell line
Experimental: Cells were seeded in a 96-well plate at 5,000 cells per well in the presence of increasing concentration of WP1130 for 3 days in a CO2 incubator at 37° C. 20 μL of 5 g/L 3-(4,5-dimethylthiazol-2-yl)-2,5-diphenyltetrazolium bromide (MTT) solution was added to each well for 2 h at 37° C. The cells were then lysed in 10% SDS-buffer and absorbance at 570 nm relative to a reference wavelength of 630 nm was determined with a microplate reader. The concentrations resulting in 50% inhibition of cell growth (IC50 values) were calculated.
Annexin V and propidium iodide (PI) staining were used to measure apoptosis in WP1130 treated cells. Briefly, 10^5/mL cells were harvested from tissue culture plates and centrifuged at 2500 rpm for 5 min at room temperature. Media supernatant was removed and cells were washed once in PBS. Cells were then resuspended in 0.4 ml of cold Annexin V binding buffer and Annexin V-FITC and propidium iodide were added. Samples were incubated at room temperature for 10 min in the dark, filtered through nylon mesh, and analyzed by flow cytometry using a FacScan analyzer (Becton-Dickinson, San Jose, Calif.).
Compounds were screened for DUB inhibitory and apoptotic activity in a panel of CML, myeloma and Mantle cell lymphoma cell lines, and compared to WP1130.

USP9X = assay: Western / HA-UbVS labeling of USP9X in intact cells or lysates; format: cell-based; conditions: for Usp9x activity (HA-UbVs labeling): CML cells treated for 4 hours; for Western Targets: USP9X: H929, WDT2, Z138 cell lines
DUB activity = assay: Western / HA-UbVS labeling of DUB activity in intact cells; format: cell-based; conditions: H929, WDT2, Z138 cell lines
Experimental: (§2) To assay for changes in activity of cellular deubiquitinase enzymes, leukemic cells were lysed in DUB buffer (50 mM Tris pH 7.4, 5 mM MgCl2, 150 mM NaCl) for 10 min at 4° C. The lysates were centrifuged at 20,000 RCF for 10 min and the supernatant was used for DUB labeling. Equal amounts of lysate were incubated with 500 ng of HA-UbVs for 1 hr at room temperature, followed by boiling in reducing sample buffer and resolving by SDS-PAGE. HA immunoblotting was used to detect DUB labeling.
as §2, with “Z138 and HEK293” for “leukemic”, “RFC” for “RCF”, “SDS-PAGE. After protein transfer to nitrocellulose membranes,” for “SDS-PAGE.”
as §1

cellular DUB activity = assay: DUB activity of lysates from treated cells (Ub-AMC, Ub chain disassembly); format: cell-based; set-up: suppression of cellular DUB activity (ubiquitin-AMC): dose or concentration left out as unconfirmed
Experimental: Cells were lysed in ice cold DUB buffer containing 50 mM Tris-HCl, pH 7.5, 0.5% NP-40, 5 mM MgCl2, 150 mM NaCl and 1 mM phenylmethylsulfonylfluoride. Briefly, 5 μg of clarified lysate from untreated or treated cells was incubated with 500 nM Ub-AMC in a 100 μL reaction volume at 37° C. and the release of AMC fluorescence was recorded at ex/em 380/480 using a spectrofluorometer. USP9x was immunoprecipitated from 500 μg of cell lysate and incubated in DUB buffer containing NEM, WP1130 or DMSO in a 100 μL reaction volume for 30 min. The reaction was initiated by the addition of 500 nM Ub-AMC and the release of AMC-fluorescence was recorded.
In vitro disassembly of purified polyubiquitin chains (K-48/K-63 linked) was performed as previously described. Five μg of lysate from untreated or WP1130 treated cells were prepared in DUB buffer and incubated with K48- or K-63 linked chains (1 μg) for 10 min at 37° C. The extent of chain disassembly was assessed by ubiquitin immunoblotting.
Inhibition of cellular deubiquitinases could lead to an increase in high molecular weight ubiquitinated proteins in the absence of proteasome inhibition. […] To directly assess the impact of WP1130 on DUB activity in treated cells, cell lysates from control and treated cells were incubated with ubiquitin-AMC and fluorescence generated as a consequence of substrate cleavage was measured as an indicator of DUB activity.
The effect of WP1130 treatment on in vitro deubiquitination/disassembly of purified K48-linked or K63-linked polyubiquitin chains was evaluated. Lysates from WP1130 treated (2 hr) or untreated cells were incubated with 1 μg of unanchored polyubiquitin chains for 5, 10 and 15 min at 37° C.

SMILES | AMC Assay on USP9X-UCH Activity relative to WP1130 (USP9X-UCH) | log reduction at 5 µM (Murine norovirus (MNV)) | MTT Activity relative to WP1130 (Z138) | other results
CCCC(NC(=O)/C(C#N)=C/c1cccc(F)n1)c1ccc(OCCN2CCOCC2)cc1 (stereo not drawn) [Compound 37, (E)-2-Cyano-3-(6-fluoropyridin-2-yl)-N-(1-(4-(2-morpholinoethoxy)phenyl)butyl)acrylamide] | No inhibition | 1 | Less sensitive | –
CCCC(NC(=O)/C(C#N)=C/c1ncc[nH]1)c1ccc(OCCN(C)C)cc1 (stereo not drawn) [Compound 38, (E)-2-Cyano-N-(1-(4-(2-(dimethylamino)ethoxy)phenyl)butyl)-3-(1H-imidazol-2-yl)acrylamide] | Inconclusive | 0.5 | Less sensitive | –
CCCC(NC(=O)/C(C#N)=C/c1cccc(F)n1)c1ccc(OCCN(CC)CC)cc1 (stereo not drawn) [Compound 34, (E)-2-Cyano-N-(1-(4-(2-(diethylamino)ethoxy)phenyl)butyl)-3-(6-fluoropyridin-2-yl)acrylamide] | No inhibition | 2 | Less sensitive | –
CCCC(NC(=O)/C(C#N)=C/c1cccc(Br)n1)c1ccc(OCCN(C)C)cc1 (stereo not drawn) [Compound 35, (E)-3-(6-Bromopyridin-2-yl)-2-cyano-N-(1-(4-(2-(dimethylamino)ethoxy)phenyl)butyl)acrylamide] | Inconclusive | 2 | Less sensitive | –
CCCC(NC(=O)/C=C/c1cccc(Br)n1)c1ccc(OCCOCCOCCNC(=O)CCCC[C@@H]2SC[C@@H]3NC(=O)N[C@@H]32)cc1 (stereo partly drawn) [Compound 51, N-(2-(2-(2-(4-(1-((E)-3-(6-Bromopyridin-2-yl)acrylamido)butyl)phenoxy)ethoxy)ethoxy)ethyl)-5-((3aS,4S,6aR)-2-oxohexahydro-1H-thieno[3,4-d]imidazol-4-yl)pentanamide] | – | 0 | – | –
Cc1cnc(Nc2ccc(N3CCN(C)CC3)cc2)nc1Nc1cccc(S(=O)(=O)NC(C)(C)C)c1 [TG101209, reference compound] | – | – | – | Usp9x activity (HA-UbVs labeling) (USP9X): none of the kinase inhibitors examined had significant Usp9x inhibitory activity
CCCC(NC(=O)/C(C#N)=C/c1ncc[nH]1)c1ccc(OCOC)cc1 (stereo not drawn) [Compound 10, (E)-2-Cyano-3-(1H-imidazol-2-yl)-N-(1-(4-(methoxymethoxy)phenyl)butyl)acrylamide] | – | – | – | Western Targets: USP9X (USP9X): USP9X and DUB activity: no effect; Western Targets: DUB activity (DUB activity): USP9X and DUB activity: no effect
CCCC(NC(=O)/C(C#N)=C/c1cccc(F)n1)c1ccc(OCCN2CCCC2)cc1 (stereo not drawn) [Compound 36, (E)-2-Cyano-3-(6-fluoropyridin-2-yl)-N-(1-(4-(2-(pyrrolidin-1-yl)ethoxy)phenyl)butyl)acrylamide] | No inhibition | 2 | Less sensitive | –
CCC[C@H](NC(=O)/C(C#N)=C/c1cccc(Cl)n1)c1ccccc1 [Compound 41, (S,E)-2-Cyano-3-(6-chloropyridin-2-yl)-N-(1-phenylbutyl)acrylamide] | Inconclusive | 2 | Less sensitive | –
CCC[C@H](NC(=O)/C(C#N)=C/c1ncc[nH]1)c1ccccc1 [Compound 42, (S,E)-2-Cyano-3-(1H-imidazol-2-yl)-N-(1-phenylbutyl)acrylamide] | Less sensitive | 0.5 | Less sensitive | –
CCCC(NC(=O)/C(C#N)=C/c1cccc(Br)n1)c1ccc(OC)cc1 (stereo not drawn) [Compound 8, (E)-3-(6-bromopyridin-2-yl)-2-cyano-N-(1-(4-methoxyphenyl)butyl)acrylamide] | – | – | – | Western Targets: USP9X (USP9X): USP9X and DUB activity: no effect; Western Targets: DUB activity (DUB activity): USP9X and DUB activity: no effect
CCCC(NC(=O)/C(C#N)=C/c1cccc(Br)n1)c1ccc(OCCOCCOCCNC(=O)CCCC[C@@H]2SC[C@@H]3NC(=O)N[C@@H]32)cc1 (stereo partly drawn) [Compound 48, N-(2-(2-(2-(4-(1-((E)-3-(6-Bromopyridin-2-yl)-2-cyanoacrylamido)butyl)phenoxy)ethoxy)ethoxy)ethyl)-5-((3aS,4S,6aR)-2-oxohexahydro-1H-thieno[3,4-d]imidazol-4-yl)pentanamide] | – | 1.5 | – | –
CCCC(NC(=O)/C(C#N)=C/c1cccc(Br)n1)c1ccc(OCCN(CC)CC)cc1 (stereo not drawn) [Compound 33, (E)-3-(6-Bromopyridin-2-yl)-2-cyano-N-(1-(4-(2-(diethylamino)ethoxy)phenyl)butyl)acrylamide] | Same | 2 to 2.5 | Less sensitive | –
CCN1C(=O)C=CC1=O [NEM, N-ethylmaleimide, reference compound] | – | – | – | Ub-AMC hydrolyzing activity of lysates from treated cells (cellular DUB activity; CML cells, WP1130 1-8 hours): completely blocked substrate hydrolysis; suppression of cellular DUB activity (ubiquitin-AMC) (cellular DUB activity; Z138 cells, within 1 hr): 80%
CCC[C@H](NC(=O)/C(C#N)=C/c1cccc(F)n1)c1ccccc1 [Compound 40, (S,E)-2-Cyano-3-(6-fluoropyridin-2-yl)-N-(1-phenylbutyl)acrylamide] | Less sensitive | 2 | Less sensitive | –
CCCC(NC(=O)/C(C#N)=C/c1ncc[nH]1)c1ccc(O)cc1 (stereo not drawn) [Compound 11, (E)-2-Cyano-N-(1-(4-hydroxyphenyl)butyl)-3-(1H-imidazol-2-yl)acrylamide] | – | – | – | Western Targets: USP9X (USP9X): USP9X and DUB activity: no effect; Western Targets: DUB activity (DUB activity): USP9X and DUB activity: no effect
Cc1ccc(NC(=O)c2ccc(CN3CCN(C)CC3)cc2)cc1Nc1nccc(-c2cccnc2)n1 [imatinib, reference compound] | – | – | – | Usp9x activity (HA-UbVs labeling) (USP9X): none of the kinase inhibitors examined had significant Usp9x inhibitory activity

— patent US8809377B2, “Deubiquitinase inhibitors and methods for use of the same” (The Regents of the University of Michigan, priority 2010, dated 2014)
